Data on one molecule can be found in article PMC6337497 (International Journal of Molecular Sciences, 2018).

The structures appear in SMILES notation.

As usually defined, the GI50 is the concentration at which growth is held to half of that of the control.

The nature of series [1]: pH-metric titration, acid-base behavior (UV-vis, HypSpec). The series is classed as physicochemical. The note with it: pH 7. How it is done: pH-metric titrations were performed in order to assess K3F acidity and predict the most abundant species in physiological condition. […] Overall protonation constants (βHL) were calculated from spectrophotometric data and optimized by means of HypSpec software (Supplementary Table S1). K3F23, K3F24 and K3F33 behaved as weak monoprotic acids, with a pKa value close to 8–8.50 associated to the keto-enol moiety. As for the other two ligands, namely K3F21 and K3F31, the acid-base equilibria were more complex in view of the polyprotic nature of the compounds, and three logβLH values were calculated. Species distribution curves (Supplementary Figure S2) provided reliable prediction of neutral and charged forms as function of pH, and consequently helped to envisage cell penetration and distribution in physiological conditions. […] As for K3F21 and K3F31, they behaved as less weak acids, in fact at pH 7 58% of K3F21 and 65% of K3F31 were found in the mono-dissociated negatively charged form (H2L^−), these percentages increased up to 74% and 86% respectively at pH 7.4. […] This outcome could be attributed to the stabilizing effect of the intramolecular hydrogen bond between the methoxyl and hydroxyl groups on the aromatic ring in the indissociated form of K3F21, which shifts the equilibrium in favor of the neutral species (H3L).
UV-vis spectrophotometric measurements were performed using Jasco V-570 spectrophotometer at 25.0 ± 0.1 °C in the 200–600 nm spectral range employing 1 cm quartz cells. Owing to the poor water solubility of the compounds, a methanol mother solution (5 × 10^−3 M) was diluted in water in order to give 50 µM solutions used for pH-metric titrations. The pH value was varied by adding small amounts of concentrated NaOH or HCl, 25 points in the pH range 3–10. A constant ionic strength of 0.1 M (NaNO3) was maintained in all the experiments. Each titration was performed at least three times. The overall protonation constants (logβLH) were evaluated from spectrophotometric data using the software HypSpec.

The subject of series [2] is DU145 cells. Put plainly: Western blot of total cellular lysates, DU145. It counts as cell-based, Human. The note with it: DU145, 48 h at GI50 dose. For orientation: Immunoblotting shows a protein as a band on a membrane.
Procedure: (§1) Actin was used as loading control. Whole-cell protein extracts were prepared by resuspending cells into 1X SDS sample buffer (25 mM Tris-HCl pH 6.8, 1.5 mM EDTA, 20% glycerol, 2% SDS, 5% β-mercaptoethanol, 0.0025% Bromophenol blue). Equivalent amounts of cellular extracts were resolved by SDS-PAGE, electrotransferred to PVDF membrane (GE Healthcare Italia, Milan, Italy) and immunoblotted with the following primary antibodies: anti-phospo-H2AX (sc-101696), anti-p53 (DO1) (sc-126), anti-actin ([MUT]) (sc-1616) and anti-PARP (sc-8007) antibody from Santa Cruz Biotecnology, Inc, Dallas, TX, USA.; phospho-specific AKT antibody S473 (#9018) and T308 (#9275), Akt antibody (#9272 and #2967), phospho-specific ERK1/2 antibody T202/Y204 (#4370), ERK1/2 antibody (#4669), phospho-specific p38 MAPK antibody T180/Y182 (#9211), and p38 antibody (#9212) were purchased from Cell Signaling Technologies, Danvers, MA, USA. Membranes were blotted and scanned with Bio-Rad ChemiDocTM Touch Imaging System (Bio-Rad, Hercules, CA, USA), using chemiluminescent detection reagents from Cyanagen, Bologna, Italy (Westar ηC and Supernova HRP substrates for Western blotting).
Series [3] concerns PC3 cells. Put plainly: Anchorage-independent colony formation assay, PC3. It counts as cell-based, Human. The note with it: PC3, 5 µM. Here is the method: For anchorage-independent colony formation assay, 0.6% low melt agarose gel with 10% FBS in appropriate complete cell growth medium was prepared and added to the wells of a twelve-well culture dish as a base agar. […] PC3 and DU145 cells were allowed to grow at 37 °C for three weeks (PC3) or five weeks (DU145). The effect of the drugs on anchorage-independent growth was determined by colony growth. Colonies were stained with 0.07% crystal violet and formed colonies were imaged. The numbers of colonies with radius ≥ 7 pixels were counted with automated colony counter (OpenCFU 3.9.0) and average number of colonies was plotted against drug concentrations. Colony numbers were normalized as a percentage of colonies formed following DMSO treatment.

Series [4] in a line: Lipophilicity (data not shown). It counts as physicochemical.
Series [5] deals with PC3 cells. Put plainly: MTT cell viability assay, PC3. The series is classed as cell-based, Human. Particulars: Homo sapiens, PC-3, 48 h, 48 h treatment, MTT. Here is the method: Human prostate cancer PC3 cells (CRL 1435, ATCC, Manassas, VA, USA) were grown in Ham’s F12 nutrient medium, human prostate cancer DU145 cells (HTB-81, ATCC, Manassas, VA, USA) in RPMI 1640 medium and human colorectal carcinoma HCT116 cells (CCL-247, ATCC, Manassas, VA, USA) in IMDM medium. All media (Biowest, Nuaillé, France) were supplemented with 10% Foetal Bovine Serum (Gibco-Thermo Fisher Scientific, Waltham, MA, USA), L-glutamine, penicillin, and streptomycin (Euroclone, Milan, Italy), and grown at 37 °C in a humidified 5% CO2 atmosphere.
DMSO was used as control.
The inhibition of cell proliferation was measured by colorimetric MTT assay and the concentration at which cellular growth is inhibited by 50% (GI50) was determined. Briefly, cells were seeded into 96-well plates at a density of 2000 cells/well. The following day, cells were treated with the indicated compounds and analyzed for cell viability after 48 h. 5 mg/mL thiazolyl blue tetrazolium bromide (Sigma-Aldrich, St. Louis, MO, USA) was added to each well at a final concentration of 0.5 mg/mL and the plates were incubated at 37 °C for 2 h. Medium containing unconverted MTT was removed and 100 µL MTT solvent (4 mM HCl, 0.1% NP-40 in isopropyl alcohol) was added to each well. The plate was gently rotated on an orbital shaker in the dark for 15 min, before the measurements of absorbance at 570 nm. The viability of untreated cells was arbitrarily set at 100%.
A general note: Formazan colour is commonly taken as a measure of viable cells.

Series [6] concerns DU145 cells. Put plainly: Anchorage-dependent colony formation assay, DU145. The series is classed as cell-based, Human. The note with it: DU145, 10 days, different doses. How it is done:
For anchorage-dependent colony formation assay, 1000 PC3 or 500 DU145 cells were plated in 6-well plates. […] After 7–10 days, the plates were washed, fixed and stained with 0.5% crystal violet solution in 20% Methanol. […] Colony numbers were normalized as a percentage of colonies formed following DMSO treatment.

Series [7] relates to PC3 cells. The series can be described thus: Western blot of total cellular lysates, PC3. It counts as cell-based, Human. Particulars: PC3, 48 h at GI50 dose.
Procedure: as §1
For series [8], the system named is PC3 cells. Put plainly: RT-qPCR gene transcription, PC3. The note with it: PC3, 48 h at GI50 dose. The series is classed as cell-based, Human. Here is the method:
Data are presented as relative transcript levels, normalized with RPL21 housekeeping gene, with DMSO levels arbitrarily set at 1.
RNA was extracted from cells using RNeasy kit (Qiagen, Venlo, The Netherlands) and reversed transcribed with a Moloney murine leukemia virus reverse transcriptase (Promega, Madison, WI, USA). Quantitative real-time PCRs were performed using SsoAdvanced Universal SYBR Green Supermix (Bio-Rad, Hercules, CA, USA) on a Bio-Rad CFX Connect™ real-time PCR detection system. Primer sequences are available upon request. The housekeeping gene Rpl21 was used as a loading control. The relative fold change enrichments of real-time PCR samples were calculated with the formula 2^−(ΔΔCt), where −(ΔΔCt) = −[(Ct target − Ct Rpl21)treated − (Ct target − Ct Rpl21)DMSO].
In general terms: In qPCR the cycle at which signal appears reflects the starting amount.

A further series deals with HCT116 cells. The series can be described thus: MTT cell viability assay, HCT116. It counts as cell-based, Human. The note with it: HCT116, 48 h.

Procedure for HCT116 cells: Human prostate cancer PC3 cells (CRL 1435, ATCC, Manassas, VA, USA) were grown in Ham’s F12 nutrient medium, human prostate cancer DU145 cells (HTB-81, ATCC, Manassas, VA, USA) in RPMI 1640 medium and human colorectal carcinoma HCT116 cells (CCL-247, ATCC, Manassas, VA, USA) in IMDM medium. All media (Biowest, Nuaillé, France) were supplemented with 10% Foetal Bovine Serum (Gibco-Thermo Fisher Scientific, Waltham, MA, USA), L-glutamine, penicillin, and streptomycin (Euroclone, Milan, Italy), and grown at 37 °C in a humidified 5% CO2 atmosphere. The inhibition of cell proliferation was measured by colorimetric MTT assay [51] and the concentration at which cellular growth is inhibited by 50% (GI50) was determined. Briefly, cells were seeded into 96-well plates at a density of 2000 cells/well. The following day, cells were treated with the indicated compounds and analyzed for cell viability after 48 h. 5 mg/mL thiazolyl blue tetrazolium bromide (Sigma-Aldrich, St. Louis, MO, USA) was added to each well at a final concentration of 0.5 mg/mL and the plates were incubated at 37 °C for 2 h. Medium containing unconverted MTT was removed and 100 µL MTT solvent (4 mM HCl, 0.1% NP-40 in isopropyl alcohol) was added to each well. The plate was gently rotated on an orbital shaker in the dark for 15 min, before the measurements of absorbance at 570 nm. […]

Take `COc1cc(/C=C/C(=O)C(CCCN2C(=O)c3ccccc3C2=O)C(=O)/C=C/c2ccc(O)c(OC)c2)ccc1O` [K3F21]: the “mono-dissociated negatively charged form (H2L−)” value in [1] worked out at 58%. In the series on DU145 cells [2], the ERK1/2 phosphorylation entry is “increased”, the “PARP-1 cleavage (apoptotic cell death)” value is on record as “activation of apoptotic cell death”, the phospho-p38 expression result was “no changes were observed” and the “γH2AX expression (marker of DNA damage)” value was “triggered DNA damage”. Also, the “decrease in colony formation, anchorage-independent” value in the series with PC3 cells [3] is on record as “up to 95%”. In [4], the lipophilicity result was “high”. The same molecule yielded a GI50 with PC3 cells [5] of 7.9 µM. The anchorage-dependent colony growth result in the series with DU145 cells [6] is “clearly inhibited cell growth when administered at lower concentrations than curcumin”. For the same molecule, in the series with PC3 cells [7], the ERK1/2 phosphorylation result is “increased”; the phospho-p38 expression entry is on record as “inhibited”; the “phosphorylation of AKT in Ser473 and Thr308” value is reported as “inhibited”; the “γH2AX expression (marker of DNA damage)” value was “triggered DNA damage”. Also, in the series with PC3 cells [8], the “Bcl-2 / Bcl-xl transcription” value is reported as “Bcl-2, but not Bcl-xl, was weakly repressed”; the Noxa transcription result was “induced”; the Puma transcription entry is recorded as “increased exclusively following K3F21 administration”; the “transcription of CDK inhibitors p21 and p27” value is “increased”. Further, in the series with PC3 cells [8] (compared to curcumin and control cells), the “transcription of Cdc2, CyclinB1, CyclinB2, and CyclinD1 cell cycle genes” value is “general decrease, though not always significant”. In addition, the “anti-proliferative activity compared to the other derivatives” value in the series on HCT116 cells was “most active molecule”.
